In patent EP4810040A2, “INHIBITORS OF APOL1 AND METHODS OF USING SAME” (priority 2020, dated 2022):
Like-named read-outs stand apart in the source and are kept apart here.

Target: T1, APOL1 G1 (Homo sapiens, UniProt O14791, I384M/S342G)
T1 sequence (O14791 28-398 S342G/I384M): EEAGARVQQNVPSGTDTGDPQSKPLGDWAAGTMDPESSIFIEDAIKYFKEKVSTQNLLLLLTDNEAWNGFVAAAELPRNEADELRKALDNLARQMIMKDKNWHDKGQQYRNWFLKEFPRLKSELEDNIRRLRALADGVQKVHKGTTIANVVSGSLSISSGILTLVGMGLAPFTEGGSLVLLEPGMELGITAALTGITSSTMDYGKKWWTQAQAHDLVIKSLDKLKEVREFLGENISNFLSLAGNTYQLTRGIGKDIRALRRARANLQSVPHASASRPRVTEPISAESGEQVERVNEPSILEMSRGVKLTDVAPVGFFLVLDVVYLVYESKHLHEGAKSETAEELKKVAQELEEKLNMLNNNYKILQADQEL
Test: MultiTox-Fluor Multiplex Cytotoxicity Assay, tet-inducible APOL1 G1 T-REx-HEK293 cells
Assay type: cell-based
Parameters: expressed in transfected cells; host or cells: T-REx HEK293, clone G1 DC3.25 (pAAVS1-Puro-APOL1 G1)
Conditions: for IC90: read-out: Multi-Tox Assay IC90; for Emax: read-out: Multi-Tox Assay Max Activity (%)
Method in brief: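 T-REx-HEK293 cells carrying tet-inducible APOL1 G1 induced with 50 ng/mL tet alongside compound (top 10 µM, 10-point 3-fold, duplicate) for 24 h at 37 °C. MultiTox-Fluor dead/live protease fluorescence ratio read after 30 min; normalized to no-tet (100% viability) and tet-treated (0%) controls, then curve-fitted.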

[1] = HEK293, Multi-Tox Assay, APOL1 variant (G0/G1/G2) of the HEK293 cells not given
[2] = Multi-Tox Assay, APOL1 variant not given
[3] = Multi-Tox Assay, APOL1 variant (G0/G1/G2) not stated in Table 46
[4] = Multi-Tox Assay, APOL1 variant not stated in Table 46

`COc1ccc2[nH]c([C@@H]3C[C@]4(C[C@H](C)N3)OCCc3cc(Cl)sc34)cc2n1` (racemic) [Compound 84] gave an IC90 [1] of less than 50 nM and an Emax [2] of 99.8%.
`C[C@H]1C[C@@]2(C[C@@H](c3cc(C(F)(F)F)[nH]n3)N1)OCCc1cc(Cl)sc12` [Compound 119] was tested, and the IC90 [1] was 50 to 500 nM and the “Multi-Tox Assay Max Activity (%)” value [2] was 99.7%.
In the case of `C[C@H]1C[C@@]2(C[C@@H](c3cn(CCC(C)(C)O)nn3)N1)OC[C@@H](O)c1cc(Cl)sc12` [Compound 252], the IC90 [1] is reported as 50 to 500 nM and the “Multi-Tox Assay Max Activity (%)” value [2] is reported as 100.0%.
Work on `Cn1cc([C@@H]2C[C@]3(C[C@H](C4CC4)N2)OCCc2cc(Cl)sc23)nn1` [Compound 381, (2'R,6'S,7S)-2-chloro-2'-cyclopropyl-6'-(1-methyltriazol-4-yl)spiro[4,5-dihydrothieno[2,3-c]pyran-7,4'-piperidine]] yielded an IC90 [3] of less than 50 nM and an Emax [4] of 100%.
In the case of `C[C@H]1C[C@@]2(C[C@@H](c3cnc4c(cnn4C)c3)N1)OCCc1cc(Cl)sc12` (racemic) [Compound 26], the IC90 [1] is reported as less than 50 nM and the “Multi-Tox Assay Max Activity (%)” value [2] is reported as 100.0%.
For `COc1ccc([C@@H]2C[C@]3(C[C@H](C)N2)OCCc2cc(Cl)sc23)cc1C#N` (racemic) [Compound 62], the IC90 [1] was less than 50 nM and the Emax [2] was 99.3%.
`C[C@H]1C[C@@]2(C[C@@H](c3cn(CCOc4ccccc4F)nn3)N1)OC[C@@H](O)c1cc(Cl)sc12` [Compound 301] was tested, and the IC90 [1] was less than 50 nM.
`C[C@H]1C[C@@]2(C[C@@H](c3ccc(O)nn3)N1)OCCc1cc(Cl)sc12` [Compound 86] was tested, and the IC90 [1] was less than 50 nM and the Emax [2] was 99.5%.
In the case of `CCC1CC2(CC(C)N1)OCCc1cc(Cl)sc12` (mixture of isomers) [Compound 215], the IC90 [1] is reported as 50 to 500 nM and the Emax [2] is reported as 99.3%.
Work on `Cc1cc([C@@H]2C[C@]3(C[C@H](C)N2)OCCc2cc(Cl)sc23)on1` (racemic) [Compound 66] yielded an IC90 [1] of less than 50 nM and an Emax [2] of 99.8%.
For `C[C@H]1C[C@@]2(C[C@@H](c3cn(C)nn3)N1)OC[C@@H](O)c1sc(C(F)(F)F)cc12` [Compound 390, (2'S,4S,6'S,7R)-2'-methyl-6'-(1-methyltriazol-4-yl)-2-(trifluoromethyl)spiro[6,7-dihydrothieno[3,2-c]pyran-4,4'-piperidine]-7-ol], the IC90 [3] was less than 50 nM and the Emax [4] was 99%.
In the case of `C[C@H]1C[C@@]2(C[C@@H](c3cn(Cc4cnc5cnccn45)nn3)N1)OCC(F)(F)c1cc(Cl)sc12` [Compound 358], the IC90 [1] is reported as less than 50 nM and the “Multi-Tox Assay Max Activity (%)” value [2] is reported as 98.0%.
`Cc1c([C@@H]2C[C@]3(C[C@H](C)N2)OCCc2cc(Cl)sc23)cnn1C` (racemic) [Compound 136] was tested, and the IC90 [1] was 50 to 500 nM and the “Multi-Tox Assay Max Activity (%)” value [2] was 98.7%.
With `Cc1cc([C@@H]2C[C@]3(C[C@H](C)N2)OCCc2cc(Cl)sc23)ccn1` (racemic) [Compound 21, (2S)-2-chloro-2'-methyl-6'-(2-methyl-4-pyridyl)spiro[4,5-dihydrothieno[2,3-c]pyran-7,4'-piperidine]] the IC90 [1] was less than 50 nM and the Emax [2] was 99.7%.
In the case of `C[C@H]1C[C@@]2(C[C@@H](c3cn(C[C@@H](O)CO)nn3)N1)OC[C@@H](O)c1cc(Cl)sc12` [Compound 246], the IC90 [1] is reported as 50 to 500 nM and the “Multi-Tox Assay Max Activity (%)” value [2] is reported as 97.0%.
In the case of `COCCOCCn1cc([C@@H]2C[C@]3(C[C@H](C)N2)OCC(F)(F)c2cc(Cl)sc23)nn1` [Compound 340], the IC90 [1] is reported as 50 to 500 nM and the “Multi-Tox Assay Max Activity (%)” value [2] is reported as 98.0%.
`COc1cccc(Cn2cc([C@@H]3C[C@]4(C[C@H](C)N3)OCC(F)(F)c3cc(Cl)sc34)nn2)c1` [Compound 319] was tested, and the IC90 [1] was 50 to 500 nM and the “Multi-Tox Assay Max Activity (%)” value [2] was 95.0%.
In the case of `C[C@H]1C[C@@]2(C[C@@H](c3cnn4c3OCCC4)N1)OCCc1cc(Cl)sc12` (racemic) [Compound 163], the IC90 [1] is reported as greater than 500 nM and the “Multi-Tox Assay Max Activity (%)” value [2] is reported as 92.7%.
`CCc1cc([C@@H]2C[C@]3(C[C@H](C)N2)OCCc2cc(Cl)sc23)on1` [Compound 91] gave an IC90 [1] of less than 50 nM and an Emax [2] of 100%.
For `C[C@H]1C[C@@]2(C[C@@H](c3cn(CC4CCCCO4)nn3)N1)OC[C@@H](O)c1cc(Cl)sc12` (some centres unmarked) [Compound 227], the IC90 [1] was 50 to 500 nM and the “Multi-Tox Assay Max Activity (%)” value [2] was 100.0%.
With `C[C@H]1C[C@@]2(C[C@@H](c3cn(CCC4CCCOC4)nn3)N1)OCC(F)(F)c1cc(Cl)sc12` (some centres unmarked) [Compound 314] the IC90 [1] was less than 50 nM.
In the case of `COCC(O)Cn1cc([C@@H]2C[C@]3(C[C@H](C)N2)OC[C@@H](O)c2cc(Cl)sc23)nn1` (some centres unmarked) [Compound 226], the IC90 [1] is reported as 50 to 500 nM and the “Multi-Tox Assay Max Activity (%)” value [2] is reported as 100.0%.
In the case of `CC1CC2(CC(c3ccc4[nH]ncc4c3)N1)OCCc1cc(Cl)sc12` (centres unmarked) [Compound 35], the IC90 [1] is reported as less than 50 nM and the “Multi-Tox Assay Max Activity (%)” value [2] is reported as 99.3%.
